In patent publication US20030229053A1, “Compounds and methods for the treatment or prevention of flavivirus infections” (Shire BioChem Inc., priority 2001, published 2003) one finds IC50 data, which are given here for 24 compounds.

By IC50 is commonly meant the concentration needed to halve the response being measured.

For one test, the target named is HCV NS5B RNA-dependent RNA polymerase (Hepatitis C virus genotype 1b, UniProt P26663). Briefly: In vitro RNA-dependent RNA polymerase assay (Assay 1), polyA/oligo dT, TCA precipitation. The format is biochemical.
Chain of HCV NS5B RNA-dependent RNA polymerase (P26663 2420-3010 limits assumed): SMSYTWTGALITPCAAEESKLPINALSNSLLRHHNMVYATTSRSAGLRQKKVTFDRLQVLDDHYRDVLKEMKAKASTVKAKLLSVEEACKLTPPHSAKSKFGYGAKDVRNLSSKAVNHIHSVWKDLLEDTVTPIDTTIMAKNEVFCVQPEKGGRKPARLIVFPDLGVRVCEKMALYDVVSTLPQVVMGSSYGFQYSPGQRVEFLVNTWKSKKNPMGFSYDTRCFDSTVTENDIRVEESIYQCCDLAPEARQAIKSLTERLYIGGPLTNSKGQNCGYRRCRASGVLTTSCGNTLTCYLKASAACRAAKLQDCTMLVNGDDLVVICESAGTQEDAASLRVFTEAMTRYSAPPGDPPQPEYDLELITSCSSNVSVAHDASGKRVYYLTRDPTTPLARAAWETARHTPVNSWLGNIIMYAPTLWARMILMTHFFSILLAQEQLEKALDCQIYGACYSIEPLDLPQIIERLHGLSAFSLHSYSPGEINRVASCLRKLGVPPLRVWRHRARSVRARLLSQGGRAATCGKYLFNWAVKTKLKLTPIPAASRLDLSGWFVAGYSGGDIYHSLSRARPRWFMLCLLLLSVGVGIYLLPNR
Conditions: not given
On the procedure:
Purification of Recombinant NS5B Using Fast Protein Liquid Chromatography (FPLC):
Soluble NS5B protein in the S3 fraction was diluted to lower the NaCl concentration to 300 mM, then it incubated batchwise with DEAE sepharose beads (Amersham-Pharmacia) for 2 hrs at 4° C., as described by Behrens et al. (1996). Unbound material was cleared by centrifugation for 15 min at 4° C., at 25,000 rpm using a SW41 rotor (Beckman). The supernatant was further diluted to lower the NaCl concentration to 200 mM and subsequently loaded, with a flow rate of 1 ml/min, on a 5 ml HiTrap® heparin column (Amersham-Pharmacia) connected to an FPLC® system (Amersham-Pharmacia). Bound proteins were eluted in 1 ml fractions, using a continuous NaCl gradient of 0.2 to 1 M, over a 25 ml volume. NS5B-containing fractions were identified by sodium dodecyl sulfate polyacrylamide gel electrophoresis (SDS-PAGE), followed by western blotting using the anti-NS5B antiserum at a dilution of 1:2000. Positive fractions were pooled and the elution buffer was exchanged against a 50 mM NaPO4 pH 7.0, 20% glycerol, 0.5% triton X-100 and 10 mM DTT, using a PD-10 column (Amersham-Pharmacia). The sample was then loaded onto a 1 ml HiTrap® SP column (Amersham-Pharmacia), with a flow rate of 0.1 ml/min. Bound proteins were eluted using a continuous 0 to 1 M NaCl gradient over a 15 ml volume. Eluted fractions were analyzed by SDS-PAGE and western blotting. Alternatively, proteins were visualized, following SDS-PAGE, by silver staining using the Silver Stain Plus kit (BioRad) as described by the manufacturer. […]
In vitro RNA-dependent RNA Polymerase Assays Used to Evaluate Biaryl Analogues (Assay 1):
RdRp assays were conducted using the homopolymeric template/primer polyA/oligo dT. All RdRp reactions were performed in a total volume of 50 μl, and in a basic buffer consisting of 20 mM Tris-HCl pH 7.5, 1 mM DTT, 50 mM NaCl, 5 mM MgCl2, 0.5 μCi […] (3000 Ci/mmol), 15 μM cold UTP and 20 U RNasin (Promega). Standard HCV RdRp reactions contained 200 ng of purified NS5B protein. PolyA RNAs (Amersham-Pharmacia) was resuspended at 400 ng/μl. The primer oligodT15 (Canadian life technologies) was diluted to a concentration of […] (7.6 ng/μl). Templates and primers were mixed volume to volume, denatured at 95° C. for 5 min and annealed at 37° C. for 10 min. Following a two hour incubation at 22° C., reactions were stopped by the addition of 100 μg of sonicated salmon sperm DNA (Life Technologies) and 1 ml of 10% trichloroacetic acid-0.5% tetrasodium pyrophosphate (TCA-PPi). Nucleic acids were precipitated at 4° C. for 30 min after which samples were filtered on GF/C glass microfiber filters (Millipore). Membranes were subsequently washed with 25 ml of a 1% TCA-0.1% PPi solution, then air dried. Incorporated radioactivity was quantified using a liquid scintillation counter (1450-Microbeta, Wallac). Results are shown in Table 1, in the column indicated as Assay 1.
Regarding `O=C(O)[C@H](Cc1ccccc1)N(Cc1cccc(Br)c1)C(=O)c1ccc(Cl)cc1Cl` [compound #9, (2s)-2-[(3-Bromo-benzyl)-(2,4-dichloro-benzoyl)-amino]-3-phenyl-propionic acid], the IC50 is less than 5 µM.

`O=C(O)[C@H](Cc1ccccc1)N(Cc1cccc(Br)c1)C(=O)c1ccc(Cl)cc1` [compound #15, (2s)-2-[(3-Bromo-benzyl)-(4-chloro-benzoyl)-amino]-3-phenyl-propionic acid] yielded an IC50 of 5 to 20 µM.

The test is the same for the next values; noted with them: polyA/oligo dT template/primer, 200 ng NS5B, 2 h at 22° C.; read-out: RNA pol Assay 1 IC50 (μm).
For `O=C(O)C(Cc1ccccc1)N(Cc1ccc(-c2cc3ccccc3o2)cc1)C(=O)c1ccc(Cl)cc1Cl` (stereo in doubt) [compound #4, (2s)-2-[(4-Benzofuran-2-yl-benzyl)-(2,4-dichloro-benzoyl)-amino]-3-phenyl-propionic acid], the IC50 was less than 5 µM.

As for `COc1cc(C)c(S(=O)(=O)N(Cc2ccc(-c3cc4ccccc4o3)cc2)C(Cc2ccccc2)C(=O)O)c(C)c1C` (stereo in doubt) [compound #6, (2s)-2-[(4-Benzofuran-2-yl-benzyl)-(4-methoxy-2,3,6-trimethyl-benzenesulfonyl)-amino]-3-phenyl-propionic acid], the IC50 was less than 5 µM.

Regarding `C=CCN(C(=O)c1ccc(Cl)cc1I)C(Cc1ccccc1)C(=O)O` (stereo not drawn) [Compound #27, 2-[Allyl-(4-chloro-2-iodo-benzoyl)-amino]-3-phenyl-propionic acid], the IC50 is 5 to 20 µM.

Regarding `O=C(O)CC(c1cccs1)N(Cc1ccc(-c2cccs2)cc1)C(=O)Nc1cc(Cl)nc(Cl)c1` (stereo not drawn) [compound #1, 3-[3-(2,6-Dichloro-pyridin-4-yl)-1-(4-thiophen-2-yl-benzyl)-ureido]-3-thiophen-2-yl-propionic acid], the IC50 is 5 to 20 µM.

With `O=C(O)[C@H](Cc1ccccc1)N(Cc1ccc(-c2nccs2)cc1)C(=O)c1ccc(Cl)cc1Cl` [compound #2, (2s)-2-[(2,4-Dichloro-benzoyl)-(4-thiazol-2-yl-benzyl)-amino]-3-phenyl-propionic acid], the IC50 was less than 5 µM.

On to `O=C(O)[C@H](Cc1ccccc1)N(Cc1ccc(Br)cc1)C(=O)c1ccc(Cl)cc1Cl` [compound #3, (2s)-2-[(4-Bromo-benzyl)-(2,4-dichloro-benzoyl)-amino]-3-phenyl-propionic acid], for which the IC50 is less than 5 µM.

`COc1cc(C)c(S(=O)(=O)N(Cc2ccc(-c3cc4ccccc4o3)cc2)[C@@H](Cc2ccccc2)C(=O)O)c(C)c1C` [compound #5, (2s)-2-[(4-Benzofuran-2-yl-benzyl) -(4-methoxy-2,3,6-trimethyl-benzenesulfonyl)-amino]-3-phenyl-propionic acid]: the IC50 was less than 5 µM.

Turning to `COc1cc(C)c(S(=O)(=O)N(Cc2cccc(-c3cc4ccccc4o3)c2)[C@@H](Cc2ccccc2)C(=O)O)c(C)c1C` [compound #7, (2s)-2-[(3-Benzofuran-2-yl-benzyl)-(4-methoxy-2,3,6-trimethyl-benzenesulfonyl)-amino]-3-phenyl-propionic acid], the half-inhibitory concentration (IC50) was less than 5 µM.

Take `CCOC(=O)CC(c1cccs1)N(Cc1ccc(I)cc1)S(=O)(=O)c1c(C)cc(OC)c(C)c1C` (stereo not drawn) [compound #8, 3-[(4-Iodo-benzyl)-(4-methoxy-2,3,6-trimethyl-benzenesulfonyl)-amino]-3-thiophen-2-yl-propionic acid ethyl ester]: the IC50 lay in the range of 5 to 20 µM.

As for `O=C(O)[C@H](Cc1ccccc1)N(Cc1cccc(Br)c1)C(=O)c1ccccc1Cl` [compound #10, (2s)-2-[(3-Bromo-benzyl)-(2-chloro-benzoyl)-amino]-3-phenyl-propionic acid], the IC50 is greater than 20 µM.

`O=C(O)[C@H](Cc1ccccc1)N(Cc1cccc(-c2cc3ccccc3o2)c1)C(=O)c1ccc(Cl)cc1Cl` [compound #11, (2s)-2-[(3-Benzofuran-2-yl-benzyl)-(2,4-dichloro-benzoyl)-amino]-3-phenyl-propionic acid]: the IC50 lay within 5 to 20 µM.

For `O=C(O)[C@H](Cc1ccccc1)N(Cc1ccc(I)cc1)C(=O)c1ccc(Cl)cc1Cl` [compound #12, (2s)-2-[(2,4-Dichloro-benzoyl)-(4-iodo-benzyl)-amino]-3-phenyl-propionic acid], the IC50 was in the range of 5 to 20 µM.

As for `COc1cc(C)c(S(=O)(=O)N(Cc2cccc(I)c2)[C@@H](Cc2ccccc2)C(=O)O)c(C)c1C` [compound #13, (2s)-2-[(3-Iodo-benzyl)-(4-methoxy-2,3,6-trimethyl-benzenesulfonyl)-amino]-3-phenyl-propionic acid], the IC50 fell in the range of 5 to 20 µM.

Regarding `COc1cc(C)c(S(=O)(=O)N(Cc2ccc(Br)cc2)[C@@H](Cc2ccccc2)C(=O)O)c(C)c1C` [compound #14, (2s)-2-[(4-Bromo-benzyl)-(4-methoxy-2,3,6-trimethyl-benzenesulfonyl)-amino]-3-phenyl-propionic acid], the IC50 was 5 to 20 µM.

For `COc1cc(C)c(S(=O)(=O)N(Cc2ccc(I)cc2)[C@@H](Cc2ccccc2)C(=O)O)c(C)c1C` [compound #16, (2s)-2-[(4-Iodo-benzyl)-(4-methoxy-2,3,6-trimethyl-benzenesulfonyl)-amino]-3-phenyl-propionic acid], the IC50 is 5 to 20 µM.

Consider `COc1cc(C)c(S(=O)(=O)N(Cc2cccc(Br)c2)[C@@H](Cc2ccccc2)C(=O)O)c(C)c1C` [compound #17, (2s)-2-[(3-Bromo-benzyl)-(4-methoxy-2,3,6-trimethyl-benzenesulfonyl)-amino]-3-phenyl-propionic acid], for which the IC50 lay in the range of 5 to 20 µM.

Regarding `COC(=O)c1ccc(-c2ccc(CN([C@@H](Cc3ccccc3)C(=O)O)S(=O)(=O)c3c(C)cc(OC)c(C)c3C)cc2)o1` [compound #18, (2s)-5-(4-{[(1s-1-Carboxy-2-phenyl-ethyl)-(4-methoxy-2,3,6-trimethyl-benzenesulfonyl)-amino]-methyl}-phenyl)-furan-2-carboxylic acid methyl ester], the IC50 was greater than 20 µM.

Turning to `O=C(O)[C@H](Cc1ccccc1)N(Cc1cccc(Br)c1)C(=O)c1ccc(Cl)c(Cl)c1` [compound #19, (2s)-2-[(3-Bromo-benzyl)-(3,4-dichloro-benzoyl)-amino]-3-phenyl-propionic acid], the IC50 was greater than 20 µM.

Consider `O=C(O)[C@H](Cc1ccccc1)N(Cc1cccc(Br)c1)S(=O)(=O)c1ccc(Cl)cc1Cl` [compound #20, (2s)-2-[(3-Bromo-benzyl)-(2,4-dichloro-benzenesulfonyl)-amino]-3-phenyl-propionic acid], for which the IC50 was greater than 20 µM.

As to `O=C(O)[C@H](Cc1cn(Cc2ccccc2)cn1)N(Cc1cccc(Br)c1)C(=O)c1ccc(Cl)cc1Cl` [compound #21, (2s)-3-(1-Benzyl-1h-imidazol-4-yl)-2-[(3-bromo-benzyl)-(2,4-dichloro-benzoyl)-amino]-propionic acid], the IC50 was 5 to 20 µM.

With `O=C(O)[C@H](Cc1ccccc1)N(Cc1cccc(Br)c1)C(=O)Cc1ccc(Cl)cc1Cl` [compound #22, (2s)-2-{(3-Bromo-benzyl)-[(2,4-dichloro-phenyl)-acetyl]-amino}-3-phenyl-propionic acid], the IC50 fell in the range of 5 to 20 µM.

For the compound `COC(=O)c1ccc(-c2ccc(CN([C@@H](Cc3ccccc3)C(=O)O)S(=O)(=O)c3c(C)cc(OC)c(C)c3C)cc2)s1` [compound #23, (2s)-5-(4-{[(1s-1-Carboxy-2-phenyl-ethyl)-(4-methoxy-2,3,6-trimethyl-benzenesulfonyl)-amino]-methyl}-phenyl)-thiophene-2-carboxylic acid methyl ester], the IC50 is greater than 20 µM.
